Legend:
Assay in all cases: relative viability (nuclei count vs DMSO), 5 days (fraction); higher = more cells survive
A549 = test system: A549
Method in brief: (§1)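 Lung cancer cell lines in 1536-well plates were dosed by pin tool the day after seeding, either with one drug alone or with a fixed anchor-drug dose plus five library-drug doses (not always all listed) in √10 steps. After 5 days, cells were fixed and their nuclei stained in one step (final 0.05% Triton X-100, 1% formaldehyde, 1 ug/ml Hoechst), then counted on 4× images. Relative viability is the nuclei count in treated wells divided by that in vehicle wells. Values are medians of duplicate plates.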

Calu-6 = test system: Calu-6
Method in brief: as §1

EBC-1 = test system: EBC-1
Method in brief: as §1

IA-LM = test system: IA-LM
Method in brief: as §1

NCI-H1299 = test system: NCI-H1299
Method in brief: as §1

NCI-H1355 = test system: NCI-H1355
Method in brief: as §1

NCI-H1703 = test system: NCI-H1703
Method in brief: as §1

`CC(C)Oc1cc(Nc2nc(N[C@@H](C)c3ccc(F)cn3)ncc2Cl)n[nH]1` [AZ23] + C[C@]1(O)C[C@@H](c2nc(-c3ccc4ccc(-c5ccccc5)nc4c3)c3c(N)nccn32)C1 [Linsitinib] (partner 1 µM) was tested, and the relative viability (A549; first compound 0.01 µM) was 0.659, the relative viability (A549; first compound 0.03162 µM) was 0.572 and the relative viability (A549; first compound 0.3162 µM) was 0.701. It also gave a relative viability (Calu-6; first compound 0.03162 µM) of 1.01, a relative viability (Calu-6; first compound 0.3162 µM) of 0.953 and a relative viability (EBC-1; first compound 0.01 µM) of 1.1. It also gave a relative viability (EBC-1; first compound 0.03162 µM) of 0.836, a relative viability (EBC-1; first compound 0.3162 µM) of 1.07 and a relative viability (IA-LM; first compound 0.01 µM) of 0.601. For the same compound, the relative viability (IA-LM; first compound 0.03162 µM) was 0.386, the relative viability (IA-LM; first compound 0.3162 µM) was 0.627 and the relative viability (NCI-H1299; first compound 0.01 µM) was 0.977. For the same compound, the relative viability (NCI-H1299; first compound 0.03162 µM) was 0.99, the relative viability (NCI-H1299; first compound 0.3162 µM) was 1.09 and the relative viability (NCI-H1355; first compound 0.01 µM) was 0.909. For the same compound, the relative viability (NCI-H1355; first compound 0.03162 µM) was 0.784, the relative viability (NCI-H1355; first compound 0.3162 µM) was 0.724 and the relative viability (NCI-H1703; first compound 0.03162 µM) was 0.647. The relative viability (NCI-H1703; first compound 0.3162 µM) was 0.592.
In the case of `C[C@@H]1CN(CC(=O)Nc2ccc3c(c2)Cc2cccc(-c4cc(=O)cc(N5CCOCC5)o4)c2S3)C[C@H](C)O1` + C[C@@H](Oc1cc(-c2cnn(C3CCNCC3)c2)cnc1N)c1c(Cl)ccc(F)c1Cl [Crizotinib] (partner 1 µM), the relative viability (A549; first compound 0.04 µM) is reported as 0.909, the relative viability (A549; first compound 0.1265 µM) is reported as 0.772 and the relative viability (A549; first compound 0.4 µM) is reported as 0.874. It also gave a relative viability (A549; first compound 4 µM) of 0.522, a relative viability (Calu-6; first compound 0.04 µM) of 0.829 and a relative viability (Calu-6; first compound 0.1265 µM) of 0.719. It also gave a relative viability (Calu-6; first compound 0.4 µM) of 0.597, a relative viability (Calu-6; first compound 4 µM) of 0.528 and a relative viability (EBC-1; first compound 0.04 µM) of 0.202. For the same compound, the relative viability (EBC-1; first compound 0.1265 µM) was 0.203, the relative viability (EBC-1; first compound 0.4 µM) was 0.201 and the relative viability (EBC-1; first compound 4 µM) was 0.2. For the same compound, the relative viability (IA-LM; first compound 0.04 µM) was 1.02, the relative viability (IA-LM; first compound 0.1265 µM) was 0.671 and the relative viability (IA-LM; first compound 0.4 µM) was 0.657. For the same compound, the relative viability (IA-LM; first compound 4 µM) was 0.36, the relative viability (NCI-H1299; first compound 0.04 µM) was 0.915 and the relative viability (NCI-H1299; first compound 0.1265 µM) was 0.92. The relative viability (NCI-H1299; first compound 0.4 µM) was 0.844, the relative viability (NCI-H1299; first compound 4 µM) was 0.837 and the relative viability (NCI-H1355; first compound 0.04 µM) was 0.955. For the same compound, the relative viability (NCI-H1355; first compound 0.1265 µM) was 1.07, the relative viability (NCI-H1355; first compound 0.4 µM) was 1.03 and the relative viability (NCI-H1355; first compound 4 µM) was 1.1. The relative viability (NCI-H1703; first compound 0.04 µM) was 0.607, the relative viability (NCI-H1703; first compound 0.1265 µM) was 0.678 and the relative viability (NCI-H1703; first compound 0.4 µM) was 0.595. For the same compound, the relative viability (NCI-H1703; first compound 4 µM) was 0.513.
`C[C@@H]1CN(CC(=O)Nc2ccc3c(c2)Cc2cccc(-c4cc(=O)cc(N5CCOCC5)o4)c2S3)C[C@H](C)O1` + C[C@]1(O)C[C@@H](c2nc(-c3ccc4ccc(-c5ccccc5)nc4c3)c3c(N)nccn32)C1 [Linsitinib] (partner 1 µM) was tested, and the relative viability (A549; first compound 0.04 µM) was 0.471, the relative viability (A549; first compound 0.1265 µM) was 0.709 and the relative viability (A549; first compound 0.4 µM) was 0.58. The relative viability (A549; first compound 4 µM) was 0.488, the relative viability (Calu-6; first compound 0.04 µM) was 0.858 and the relative viability (Calu-6; first compound 0.1265 µM) was 0.911. The relative viability (Calu-6; first compound 0.4 µM) was 0.938, the relative viability (Calu-6; first compound 4 µM) was 0.673 and the relative viability (EBC-1; first compound 0.04 µM) was 1.01. For the same compound, the relative viability (EBC-1; first compound 0.1265 µM) was 0.867, the relative viability (EBC-1; first compound 0.4 µM) was 0.84 and the relative viability (EBC-1; first compound 4 µM) was 0.599. For the same compound, the relative viability (IA-LM; first compound 0.04 µM) was 0.713, the relative viability (IA-LM; first compound 0.1265 µM) was 0.549 and the relative viability (IA-LM; first compound 0.4 µM) was 0.528. It also gave a relative viability (IA-LM; first compound 4 µM) of 0.283, a relative viability (NCI-H1299; first compound 0.04 µM) of 1.01 and a relative viability (NCI-H1299; first compound 0.1265 µM) of 0.978. For the same compound, the relative viability (NCI-H1299; first compound 0.4 µM) was 0.964, the relative viability (NCI-H1299; first compound 4 µM) was 0.822 and the relative viability (NCI-H1355; first compound 0.04 µM) was 0.857. It also gave a relative viability (NCI-H1355; first compound 0.1265 µM) of 0.792, a relative viability (NCI-H1355; first compound 0.4 µM) of 0.866 and a relative viability (NCI-H1355; first compound 4 µM) of 0.815. The relative viability (NCI-H1703; first compound 0.04 µM) was 0.853, the relative viability (NCI-H1703; first compound 0.1265 µM) was 1.24 and the relative viability (NCI-H1703; first compound 0.4 µM) was 0.549. For the same compound, the relative viability (NCI-H1703; first compound 4 µM) was 0.492.
Compound `C[C@@H]1CN(CC(=O)Nc2ccc3c(c2)Cc2cccc(-c4cc(=O)cc(N5CCOCC5)o4)c2S3)C[C@H](C)O1` + CS(=O)(=O)CCNCc1ccc(-c2ccc3ncnc(Nc4ccc(OCc5cccc(F)c5)c(Cl)c4)c3c2)o1 [Lapatinib] (partner 2 µM) has a relative viability (A549; first compound 0.04 µM) of 0.986, a relative viability (A549; first compound 0.1265 µM) of 0.917 and a relative viability (A549; first compound 0.4 µM) of 1.14. The relative viability (A549; first compound 4 µM) was 0.831, the relative viability (Calu-6; first compound 0.04 µM) was 1.09 and the relative viability (Calu-6; first compound 0.1265 µM) was 1.06. The relative viability (Calu-6; first compound 0.4 µM) was 0.96, the relative viability (Calu-6; first compound 4 µM) was 0.775 and the relative viability (EBC-1; first compound 0.04 µM) was 0.255. It also gave a relative viability (EBC-1; first compound 0.1265 µM) of 0.219, a relative viability (EBC-1; first compound 0.4 µM) of 0.214 and a relative viability (EBC-1; first compound 4 µM) of 0.208. It also gave a relative viability (IA-LM; first compound 0.04 µM) of 0.951, a relative viability (IA-LM; first compound 0.1265 µM) of 0.777 and a relative viability (IA-LM; first compound 0.4 µM) of 0.956. For the same compound, the relative viability (IA-LM; first compound 4 µM) was 0.339, the relative viability (NCI-H1299; first compound 0.04 µM) was 1.01 and the relative viability (NCI-H1299; first compound 0.1265 µM) was 0.956. For the same compound, the relative viability (NCI-H1299; first compound 0.4 µM) was 1.01, the relative viability (NCI-H1299; first compound 4 µM) was 0.816 and the relative viability (NCI-H1355; first compound 0.04 µM) was 0.713. The relative viability (NCI-H1355; first compound 0.1265 µM) was 0.992, the relative viability (NCI-H1355; first compound 0.4 µM) was 0.816 and the relative viability (NCI-H1355; first compound 4 µM) was 0.97. The relative viability (NCI-H1703; first compound 0.04 µM) was 1.24, the relative viability (NCI-H1703; first compound 0.1265 µM) was 1.1 and the relative viability (NCI-H1703; first compound 0.4 µM) was 0.955. It also gave a relative viability (NCI-H1703; first compound 4 µM) of 0.688.
